SMILES strings stand for the structures.

For this assay, the target named is T1, human ENPP1 (Homo sapiens, UniProt P22413).
T1 construct: made in house
T1 sequence (P22413 1-925): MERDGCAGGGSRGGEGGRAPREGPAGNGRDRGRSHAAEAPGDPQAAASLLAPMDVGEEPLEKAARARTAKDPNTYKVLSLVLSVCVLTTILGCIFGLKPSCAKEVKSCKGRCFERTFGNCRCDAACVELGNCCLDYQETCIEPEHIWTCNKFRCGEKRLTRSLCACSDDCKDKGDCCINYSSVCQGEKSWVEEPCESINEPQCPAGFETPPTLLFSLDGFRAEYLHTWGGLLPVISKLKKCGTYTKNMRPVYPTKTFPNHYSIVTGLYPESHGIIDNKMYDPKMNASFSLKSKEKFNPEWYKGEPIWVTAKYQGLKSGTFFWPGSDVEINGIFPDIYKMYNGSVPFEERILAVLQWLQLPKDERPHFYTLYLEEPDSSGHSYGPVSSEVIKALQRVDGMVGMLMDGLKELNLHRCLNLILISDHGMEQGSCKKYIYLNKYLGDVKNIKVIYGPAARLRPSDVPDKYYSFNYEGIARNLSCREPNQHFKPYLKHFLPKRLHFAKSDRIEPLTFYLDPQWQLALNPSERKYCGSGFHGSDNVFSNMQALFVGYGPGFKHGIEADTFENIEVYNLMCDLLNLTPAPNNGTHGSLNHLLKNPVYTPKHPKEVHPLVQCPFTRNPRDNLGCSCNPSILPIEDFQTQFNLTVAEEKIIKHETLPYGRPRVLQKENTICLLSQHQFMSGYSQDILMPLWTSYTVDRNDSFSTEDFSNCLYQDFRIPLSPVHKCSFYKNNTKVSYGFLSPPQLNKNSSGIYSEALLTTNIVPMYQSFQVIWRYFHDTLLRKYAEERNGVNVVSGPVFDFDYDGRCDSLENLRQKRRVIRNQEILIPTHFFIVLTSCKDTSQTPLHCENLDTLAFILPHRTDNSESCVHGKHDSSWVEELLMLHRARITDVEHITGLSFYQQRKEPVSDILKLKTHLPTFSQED
Kind of assay: ENPP1 assay with ATP substrate (Transcreener AMP2/GMP2 TR-FRET). It counts as biochemical. Particulars: 1 hour at room temperature. The text has this:
Example B1: ENPP1 Assay with ATP Substrate
Ectonucleotide pyrophosphatase/phosphodiesterase 1 (ENPP1) hydrolyzes ATP, breaking it down into 5′-AMP and pyrophosphate. The 5′-AMP formed from the reaction is detected by Transcreener® AMP2/GMP2 TR-FRET Assay (Bellbrook), containing AMP-tracer (HiLyte 647) and anti-AMP Terbium (Tb) donor. 5′-AMP generated in the reaction competes with AMP-tracer for binding with Anti-AMP Tb donor, and decreases TR-FRET signal.
Different concentrations of ENPP1 inhibitors are added to dry assay plate, followed by 2 μl 300 nM ATP. The reaction is initiated with the addition of 2 μl 8.5 μM human ENPP1 (generated by SBP Protein group). The assay reaction mixture contains a buffer of 50 mM Tris, pH 7.5, 1 mM TCEP, 2 mM MgCl2, 0.005% Tween 20, and 1% DMSO. The reaction is stopped after 1 hour at room temperature by adding 2 μL of 2 nM AMP-tracer and 2 μl of 2 nM Anti-AMP Tb donor in the 50 mM Tris, pH 7.5, buffer containing 20 mM EDTA and 0.1% Prionex. After 2 hour additional incubation at room temperature, the generated signal is measured using BMG Lab PHERASTAR instrument. 100% activity control samples (containing enzyme, substrate, buffer: MAX) and no enzyme control samples (containing substrate and buffer: MIN) are utilized to calculate percent inhibition (%) for each compound concentration well (COMPOUND) as follows.
The IC50 values are determined by fitting the inhibition curves with 2-parameter variable slope model in Graphpad Prism software using percent inhibition vs compound concentration data: […]
Turning to `Cn1ncc2c(NCc3cccnc3)nc(-c3ccccn3)nc21` [Example 2.18, 1-Methyl-6-(pyridin-2-yl)-N-(pyridin-3-ylmethyl)-1H-pyrazolo[3,4-d]pyrimidin-4-amine], the concentration for half-maximal inhibition (IC50) is above 20 µM.
In the case of `Cn1ncc(CNc2nc(-c3ccccn3)nc3scc(-c4ccccc4)c23)c1N` [Example 1.34, (5-Amino-1-methyl-1H-pyrazol-4-ylmethyl)-(5-phenyl-2-pyridin-2-yl-thieno[2,3-d]pyrimidin-4-yl)-amine], the half-inhibitory concentration (IC50) is 1 to 20 µM.
The same measure for `Cc1csc2c(N3CCC(NC(=O)C4CC4c4ccccc4)CC3)ncnc12` (stereo not drawn) [Example 3.79, N-(1-(7-Methylthieno[3,2-d]pyrimidin-4-yl)piperidin-4-yl)-2-phenylcyclopropanecarboxamide]: 1 to 20 µM; for `Cc1csc2c(N3CCC(NC/C=C/c4ccncc4)CC3)ncnc12` [Example 3.76, (E)-1-(7-methylthieno[3,2-d]pyrimidin-4-yl)-N-(3-(pyridin-4-yl)allyl)piperidin-4-amine]: 0.1 to 1 µM; for `CNc1nc(N2CCC(NCCCc3cnccc3C)CC2)c2scc(C)c2n1` [Example 3.69, N,7-Dimethyl-4-(4-((3-(4-methylpyridin-3-yl)propyl)amino)piperidin-1-yl)thieno[3,2-d]pyrimidin-2-amine]: 1 to 20 µM.
`Cn1ncc2c(NCc3ccccn3)nc(-c3ccccn3)nc21` [Example 2.19, 1-Methyl-6-(pyridin-2-yl)-N-(pyridin-2-ylmethyl)-1H-pyrazolo[3,4-d]pyrimidin-4-amine] displayed an IC50 above 20 µM.
Consider `O=C(CCc1ccc(F)cc1)NC1CCN(c2ncnc3c(Cl)csc23)CC1` [Example 3.64, N-(1-(7-Chlorothieno[3,2-d]pyrimidin-4-yl)piperidin-4-yl)-3-(4-fluorophenyl)propanamide], for which the 50% inhibitory concentration (IC50) lay within 1 to 20 µM.
Turning to `Cn1ncc2c(NCc3ccco3)nc(-c3ccccn3)nc21` [Example 2.23, N-(Furan-2-ylmethyl)-1-methyl-6-(pyridin-2-yl)-1H-pyrazolo[3,4-d]pyrimidin-4-amine], the half-maximal inhibitory concentration (IC50) was above 20 µM.
`Cc1ccncc1CCCNC1CCN(c2nc(Cl)nc3c(C)csc23)CC1` [Example 3.68, 1-(2-Chloro-7-methylthieno[3,2-d]pyrimidin-4-yl)-N-(3-(4-methylpyridin-3-yl)propyl)piperidin-4-amine] had a half-inhibitory concentration (IC50) of 1 to 20 µM.
The same measure for `Cn1ncc2c(NCc3ccc(S(N)(=O)=O)cc3)nc(-c3ccncc3)nc21` [Example 2.16, 4-(((1-Methyl-6-(pyridin-4-yl)-1H-pyrazolo[3,4-d]pyrimidin-4-yl)amino)methyl)-benzenesulfonamide]: above 20 µM; for `Cc1csc2c(N3CCC(NCC4CC4c4ccncc4)CC3)ncnc12` (stereo not drawn) [Example 3.81, 1-(7-Methylthieno[3,2-d]pyrimidin-4-yl)-N-((2-(pyridin-4-yl)cyclopropyl)methyl)piperidin-4-amine]: 0.1 to 1 µM; for `Cn1ncc2c(NCc3ccc(S(N)(=O)=O)cc3)nc(-c3ccccc3)nc21` [Example 2, 4-(((1-Methyl-6-phenyl-1H-pyrazolo[3,4-d]pyrimidin-4-yl)amino)methyl)-benzenesulfonamide]: 1 to 20 µM.
Under `Cn1ncc2c(NCc3cccc(F)c3)nc(-c3ccccn3)nc21` [Example 2.12, N-(3-Fluorobenzyl)-1-methyl-6-(pyridin-2-yl)-1H-pyrazolo[3,4-d]pyrimidin-4-amine] stands above 20 µM; under `Cc1csc2nc(-c3ccccn3)nc(NCc3ccc(S(N)(=O)=O)s3)c12` [Example 1.37, 5-(((5-Methyl-2-(pyridin-2-yl)thieno[2,3-d]pyrimidin-4-yl)amino)methyl)thiophene-2-sulfonamide], above 20 µM; under `c1ccc(-c2csc3nc(-c4ccccn4)nc(NCc4ccccn4)c23)cc1` [Example 1.2, (5-Phenyl-2-pyridin-2-yl-thieno[2,3-d]pyrimidin-4-yl)-pyridin-2-ylmethyl-amine], above 20 µM.

(Values after patent US12643910B2, “Substituted pyrazolo[3,4-b]pyridines as ectonucleotide pyrophosphatase/phosphodiesterase 1 (ENPP1) modulators” (SANFORD BURNHAM PREBYS MEDICAL DISCOVERY INSTITUTE, priority 2019, dated 2026).)
